One assay addresses rat CB1 (rCB1) (Rattus norvegicus, UniProt P20272). The format is binding.
A further assay has as its target mouse CB2 (mCB2) (Mus musculus, UniProt P47936). In words: Radioligand binding, displacement of [3H]CP-55,940 from mouse spleen membranes. As to conditions: for lower affinity for CB2 compared to 6b: mCB2 Ki relative to 6b.
A further assay deals with rCB1 receptor (Rattus norvegicus, UniProt P20272). It is filed as cell-based.
Assay [1] relates to rats. In words: Hypothermia test, core body temperature over 6 hours after injection. It is filed as in vivo. The following applies: rat, 0.1 mg/kg s.c.
Assay [2] has as its system rats. In words: Antinociception, tail-flick procedure over 6 hours after injection. As to conditions: rat.
Where [3] appears, read: six-atom versus seven-atom ω-bromo side chain.

rat CB1 (rCB1), sequence (P20272 whole entry): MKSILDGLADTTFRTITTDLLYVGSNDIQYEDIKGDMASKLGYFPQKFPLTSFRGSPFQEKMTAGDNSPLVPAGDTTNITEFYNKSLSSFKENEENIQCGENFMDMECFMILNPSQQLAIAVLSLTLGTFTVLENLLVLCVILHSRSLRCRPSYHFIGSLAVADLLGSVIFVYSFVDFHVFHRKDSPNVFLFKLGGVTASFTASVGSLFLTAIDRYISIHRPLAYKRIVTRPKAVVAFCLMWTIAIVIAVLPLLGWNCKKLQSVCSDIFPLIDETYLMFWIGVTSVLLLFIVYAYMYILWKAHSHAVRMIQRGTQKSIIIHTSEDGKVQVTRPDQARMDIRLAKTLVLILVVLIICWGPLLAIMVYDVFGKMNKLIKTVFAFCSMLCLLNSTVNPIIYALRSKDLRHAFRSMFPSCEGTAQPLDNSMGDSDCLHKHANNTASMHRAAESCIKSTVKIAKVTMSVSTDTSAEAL
mouse CB2 (mCB2), sequence (P47936 whole entry): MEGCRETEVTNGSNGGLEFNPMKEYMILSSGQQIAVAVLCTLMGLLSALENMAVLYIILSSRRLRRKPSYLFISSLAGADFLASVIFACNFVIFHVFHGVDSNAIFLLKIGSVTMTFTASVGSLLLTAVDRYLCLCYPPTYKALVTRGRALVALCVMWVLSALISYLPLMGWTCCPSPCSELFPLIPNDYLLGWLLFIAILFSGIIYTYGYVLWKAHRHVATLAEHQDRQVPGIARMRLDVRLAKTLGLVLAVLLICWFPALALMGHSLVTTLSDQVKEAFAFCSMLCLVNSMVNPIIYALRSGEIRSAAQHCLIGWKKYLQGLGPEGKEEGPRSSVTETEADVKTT
rCB1 receptor, sequence (P20272 whole entry): as the sequence (P20272 whole entry) above

For `CCCCCCC1(c2cc(O)c3c(c2)OC(C)(C)[C@@H]2CCC(=O)C[C@@H]32)SCCS1` [6c, (6aR, 10aR)-3-(2-Hexyl-1,3-dithiolan-2-yl)-6,6a,7,8,10,10a-hexahydro-1-hydroxy-6,6-dimethyl-9H-dibenzo[b,d]pyran-9-one], the “lower affinity for CB1 compared to 6b” value on rat CB1 (rCB1) (rCB1 Ki relative to 6b) is given as 4 fold. In addition, the “lower affinity for CB2 compared to 6b” value at mouse CB2 (mCB2) came out at 44 fold.
For `CCCC/C=C\C1(c2cc(O)c3c(c2)OC(C)(C)[C@@H]2CCC(=O)C[C@@H]32)CCCC1` [6a, (6aR, 10aR)-3-[1-(1,2-cis-Hexen-1-yl)-cyclopent-1-yl]-6,6a,7,8,10,10a-hexahydro-1-hydroxy-6,6-dimethyl-9H-dibenzo[b,d]pyran-9-one], at mouse CB2 (mCB2), the “lower affinity for CB2 compared to 6b” value was found to be 5 fold.
At rCB1 receptor, `CCCCCCC1(c2cc(O)c3c(c2)OC(C)(C)[C@@H]2CC[C@@H](O)C[C@@H]32)CCC1` [7e-β, (6aR, 9R, 10aR)-3-(1-Hexyl-cyclobut-1-yl)-6a,7,8,9,10,10a-hexahydro-6,6-dimethyl-6H-dibenzo[b,d]pyran-1,9 diol] yielded a concentration giving a half-maximal response (EC50) of 1.5 ± 0.3 nM. For the same compound, the “functional efficacy at CB1” value on rCB1 receptor (cAMP assay) is “full agonist”. For the same compound, in the assay on rats [1], the “onset of drug effect (hypothermia) after injection” value was 60 to 90 min and the “time of peak effects (hypothermia) after injection” value is 300 min. The “reduction of core body temperature” value in the assay with rats [1] (from average baseline of 38.48±0.06°C) was “up to 4.2±0.5 °C”. Further, in the assay with rats [2] (0.1 mg/kg 7e-β after 30-min pretreatment with 1.0 mg/kg rimonabant (SR141716A)), the “antinociception, % of the maximum possible effect” value (“antinociception, %” for short) came to 85.4±5.8%. For the same compound, the “antinociception, %” value with rats [2] (0.1 mg/kg 7e-β after 30-min pretreatment with 3.0 mg/kg rimonabant (SR141716A)) is given as 48.0±10.9%. Also, the “antinociception, %” value with rats [2] (0.1 mg/kg 7e-β alone, different group of animals) is on record as 100%. Besides, in the assay on rats [2] (s.c., tail-flick), the “doses with significant antinociceptive effects” value is 0.01 to 0.3 mg/kg and the “onset of the antinociceptive effects after injection” value fell in the range of 60 to 120 min. Besides, in the assay on rats [2] (s.c., tail-flick, 6 hour test period), the “time course of antinociceptive effects” value is reported as “generally increased over the 6 hour test period”.
Turning to `CCCC/C=C\C1(c2cc(O)c3c(c2)OC(C)(C)[C@@H]2CCC(=O)C[C@@H]32)CCC1` [6d, (6aR, 10aR)-3-[1-(1,2-cis-Hexen-1-yl)-cyclobut-1-yl]-6,6a,7,8,10,10a-hexahydro-1-hydroxy-6,6-dimethyl-9H-dibenzo[b,d]pyran-9-one], the “selectivity for CB1 over CB2” value at rat CB1 (rCB1) (from Ki rCB1 and mCB2, as stated in text) is 11 fold.
On to `CN1CC[C@]23c4c5ccc(O)c4O[C@H]2[C@@H](O)C=C[C@H]3[C@H]1C5` [morphine, reference compound], for which, in the assay on rats [2] (s.c., tail-flick), the “time after injection by which antinociceptive effects were decreasing” value amounted to 3 h and the “time of peak antinociceptive effects after injection” value fell in the range of 30 to 120 min. Moreover, the “antinociceptive effects lower than 7e-β” value in the assay with rats [2] (tail-flick, relative to 7e-β) was “approximately 100 fold”.
As to `CC1(C)Oc2cc(C3(CCCCBr)CCCC3)cc(O)c2[C@@H]2CC(=O)CC[C@H]21` [15a, (6aR,10aR)-3-[1-(4-Bromobutyl)cyclopentyl]-6,6a,7,8,10,10a-hexahydro-1-hydroxy-6,6-dimethyl-9H-dibenzo[b,d]pyran-9-one], the “reduction in affinity for CB1” value on rat CB1 (rCB1) (setting [3]) came to 13 fold. For the same compound, the “reduction in affinity for CB2” value at mouse CB2 (mCB2) (setting [3]) is listed as 5 fold.

These data come from publication PMC3650853 (Journal of medicinal chemistry, 2010).
